Measured values from patent US20240051954A1, “PYRROLO[3,2-B]PYRIDINE DERIVATIVES USEFUL IN TREATING CONDITIONS ASSOCIATED WITH CGAS” (NOVARTIS AG, priority 2020, published 2024).

molecular target: human truncated cGAS enzyme (147-522 human cGAS) (Homo sapiens (Human), UniProt Q8N884); test: Quantification of cGAS protein inhibition (cGAMP formation, LC-MS/MS); format: biochemical; details: 30 nM enzyme, 45 bp dsDNA (ISD) 5 μM, GTP and ATP 0.5 mM each, 1 h at room temperature; potential mixture of co-existing tautomers and/or racemates
Sequence (Q8N884 147-522): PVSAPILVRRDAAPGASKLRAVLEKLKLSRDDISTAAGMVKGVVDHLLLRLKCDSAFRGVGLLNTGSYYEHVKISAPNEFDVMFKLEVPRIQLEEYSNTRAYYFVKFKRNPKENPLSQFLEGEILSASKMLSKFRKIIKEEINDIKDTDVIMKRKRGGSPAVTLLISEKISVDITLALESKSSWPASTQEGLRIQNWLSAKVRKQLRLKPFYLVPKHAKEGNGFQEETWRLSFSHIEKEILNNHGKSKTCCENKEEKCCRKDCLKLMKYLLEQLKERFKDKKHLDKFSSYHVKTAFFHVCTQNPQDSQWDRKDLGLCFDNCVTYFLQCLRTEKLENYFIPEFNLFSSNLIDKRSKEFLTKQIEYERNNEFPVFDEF
Method: Example 52: Quantification of cGAS Protein Inhibition
A reagent buffer was prepared in filtered and autoclaved water according to the following: • 50 mM Tris-buffer pH 7.5 (1 M Tris-buffer pH 7.5, Invitrogen, Cat. No. 15567-027); • 50 mM NaCl (5 M NaCl, Sodium Chloride Solution, Sigma, 59222C-); • 5 mM MgCl2 (1 M MgCl2, Sigma, M1028); • 0.1 mM ZnCl2 (Zinc Chloride [7646-85-7], powder, Cell Culture Tested, Sigma, Z-0152); and • 0.001% Tween 20 (TWEEN 20, Sigma Aldrich, P1379-).
A buffer for the cGAS enzyme was prepared in filtered and autoclaved water according to the following: • 50 mM Tris-buffer pH 7.5; • 5 mM MgCl2; and • 0.001% Tween 20.
Compounds were dispensed to a […]. The human truncated cGAS enzyme (4.2 mg/mL 147-522 human cGAS, MW 43,909 g/mol) was stored in 50 mM Tris, 500 mM NaCl, 5% (v/v) glycerol at pH 8 and diluted in the cGAS buffer enzyme shortly before use. The enzyme solution was transferred into the reagent buffer to give a final concentration of 30 nM. The reaction was started by mixing the enzyme with ISD (a 45 bp double stranded DNA, MW 27,670 g/mol, 5 mM), GTP and ATP to a final concentration of 5 μM, 0.5 mM and 0.5 mM respectively in a final volume of 10 μl. The reaction plates were then centrifuged at 1000 rpm for 1 minute and incubated at room temperature for 1 h. After 1 h of incubation, [^15N5]-2′3′-cGAMP to a final concentration of 200 nM and 30 μL of 100% acetonitrile/0.175% of TFA were added to the reaction mixture. The plates were centrifuged at 1000 rpm for 1 minute before being sealed for 3 seconds at 170° C. using a ThermoScientific sealer (ALPS™ 50V) and an aluminum sealing cover (Pierce Seal, 4titude, Product Code: 4TI-0531).
The concentration of cGAMP was measured on a LC-MS/MS system consisting of a THERMO Dionex Ultimate LC system with a high pressure pump, an autosampler, a column heating compartment (Reinach, Switzerland) and a SCIEX Triple Quad 5500 (Framingham, MA, USA) mass spectrometer for detection. The sample plates were centrifuged for 10 minutes at 2000 rpm. Up to three plates were placed in the autosampler for injection. An aliquot of 10 μL of each sample was injected on an XBridge BEH Amide 3.5 μm, 2.1×50 mm column (P/N 186004859) with an XBridge BEH Amide 5 μm 2.1×5 mm VanGuard Cartridge (P/N 186007760) pre-column (both WATERS, MA, USA) held at 40° C. An isocratic flow of 1.0 mL/min solvent (60% ACN, 8 mM ammonium acetate, 5 mM ammonium hydroxide, 0.04% acetic acid) was applied and sprayed into the ion source of the mass spectrometers. The MS parameters were optimized based on the properties of the compounds to be detected and run in positive multi-reaction mode (MRM) based on the mass transitions. LC and MS parameters were also optimized to allow for a sample-to-sample measuring time of approximately 75 sec and a run time of 8 hours per 384-well plate. All data were analyzed with Excel; and the dose response curves were generated using the auto fitting function of XLfit. The IC50 was determined by plotting the cGAMP concentration ratio (cGAMP divided by the internal standard [^15N5]-2′3′-cGAMP) versus the concentration of compound.

Point of comparison: `Cn1c(-c2nnc(C(F)(F)F)[nH]2)c(-c2cn[nH]c2)c2nc(O)c(Cl)cc21` [Example 50, 6-chloro-1-methyl-3-(1H-pyrazol-4-yl)-2-(5-(trifluoromethyl)-4H-1,2,4-triazol-3-yl)-1H-pyrrolo[3,2-b]pyridin-5-ol], IC50 0.741 µM. Against it:
- COc1nc2c(-n3ccnc3)c(-c3nnc(CN(C)C)[nH]3)n(C)c2cc1Cl [Example 51, 1-(5-(6-chloro-3-(1H-imidazol-1-yl)-5-methoxy-1-methyl-1H-pyrrolo[3,2-b]pyridin-2-yl)-4H-1,2,4-triazol-3-yl)-N,N-dimethylmethanamine] — 2.4-fold lower, 0.308 µM
- COc1nc2c(-c3cn[nH]c3)c(-c3nnc(F)[nH]3)n(C)c2cc1Cl [Example 9, 6-chloro-2-(5-fluoro-4H-1,2,4-triazol-3-yl)-5-methoxy-1-methyl-3-(1H-pyrazol-4-yl)-1H-pyrrolo[3,2-b]pyridine] — 2.8-fold lower, 0.267 µM
- COCC(O)c1nnc(-c2c(-n3ccnc3)c3nc(OC)c(Cl)cc3n2C)[nH]1 (centres unmarked) [Example 29, 1-(5-(6-chloro-3-(1H-imidazol-1-yl)-5-methoxy-1-methyl-1H-pyrrolo[3,2-b]pyridin-2-yl)-4H-1,2,4-triazol-3-yl)-2-methoxyethan-1-ol] — 2.5-fold lower, 0.295 µM
- COc1nc2c(-c3cn[nH]c3)c(-c3nnc(C(C)(F)F)[nH]3)[nH]c2cc1Cl [Example 3, 6-chloro-2-(5-(1,1-difluoroethyl)-4H-1,2,4-triazol-3-yl)-5-methoxy-3-(1H-pyrazol-4-yl)-1H-pyrrolo[3,2-b]pyridine] — 23-fold lower, 0.032 µM
- COc1nc2c(-n3ccnc3)c(-c3nnc(C(=O)N(C)C)[nH]3)n(C)c2cc1Cl [Example 17, 5-(6-chloro-3-(1H-imidazol-1-yl)-5-methoxy-1-methyl-1H-pyrrolo[3,2-b]pyridin-2-yl)-N,N-dimethyl-4H-1,2,4-triazole-3-carboxamide] — 6.4-fold lower, 0.116 µM
- COc1nc2c(-n3ccnc3)c(-c3nnc(C(OC)C(F)(F)F)[nH]3)n(C)c2cc1Cl (centres unmarked) [Example 26, 6-chloro-3-(1H-imidazol-1-yl)-5-methoxy-1-methyl-2-(5-(2,2,2-trifluoro-1-methoxyethyl)-4H-1,2,4-triazol-3-yl)-1H-pyrrolo[3,2-b]pyridine] — 6.9-fold lower, 0.107 µM
- COc1nc2c(-c3cn[nH]c3)c(-c3nnc(C(=O)N(C)C)[nH]3)[nH]c2cc1Cl [Example 16, 5-(6-chloro-5-methoxy-3-(1H-pyrazol-4-yl)-1H-pyrrolo[3,2-b]pyridin-2-yl)-N,N-dimethyl-4H-1,2,4-triazole-3-carboxamide] — 25-fold lower, 0.03 µM
- COc1nc2c(-n3ccnc3)c(-c3nnc(C(F)(F)F)[nH]3)[nH]c2cc1Cl [Example 46, 6-chloro-3-(1H-imidazol-1-yl)-5-methoxy-2-(5-(trifluoromethyl)-4H-1,2,4-triazol-3-yl)-1H-pyrrolo[3,2-b]pyridine] — 9.3-fold lower, 0.08 µM
- COc1nc2c(-c3cn[nH]c3)c(-c3nnc(C(F)(F)F)[nH]3)n(C)c2cc1Cl [Example 1, 6-chloro-5-methoxy-1-methyl-3-(1H-pyrazol-4-yl)-2-(5-(trifluoromethyl)-4H-1,2,4-triazol-3-yl)-1H-pyrrolo[3,2-b]pyridine] — 9.8-fold lower, 0.076 µM
- COCC(c1nnc(-c2c(-n3ccnc3)c3nc(OC)c(Cl)cc3n2C)[nH]1)N(C)C (centres unmarked) [Example 36, 1-(5-(6-chloro-3-(1H-imidazol-1-yl)-5-methoxy-1-methyl-1H-pyrrolo[3,2-b]pyridin-2-yl)-4H-1,2,4-triazol-3-yl)-2-methoxy-N,N-dimethylethan-1-amine] — 1.6-fold lower, 0.454 µM
- COc1nc2c(-c3cn[nH]c3)c(-c3nnc(C(=O)N(C)C)[nH]3)n(C)c2cc1Cl [Example 43, 5-(6-chloro-5-methoxy-1-methyl-3-(1H-pyrazol-4-yl)-1H-pyrrolo[3,2-b]pyridin-2-yl)-N,N-dimethyl-4H-1,2,4-triazole-3-carboxamide] — 7.6-fold lower, 0.098 µM
- COc1nc2c(-c3cn[nH]c3)c(-c3nnc[nH]3)n(C)c2cc1Cl [Example 14, 6-chloro-5-methoxy-1-methyl-3-(1H-pyrazol-4-yl)-2-(4H-1,2,4-triazol-3-yl)-1H-pyrrolo[3,2-b]pyridine] — 4.8-fold higher, 3.52 µM
- COc1nc2c(-c3cn[nH]c3)c(-c3nnc(C(C)=O)[nH]3)n(C)c2cc1Cl [Example 42, 1-(5-(6-chloro-5-methoxy-1-methyl-3-(1H-pyrazol-4-yl)-1H-pyrrolo[3,2-b]pyridin-2-yl)-4H-1,2,4-triazol-3-yl)ethan-1-one] — 11-fold lower, 0.066 µM
- COCC(F)(F)c1nnc(-c2c(-n3ccnc3)c3nc(OC)c(Cl)cc3n2C)[nH]1 [Example 30, 6-chloro-2-(5-(1,1-difluoro-2-methoxyethyl)-4H-1,2,4-triazol-3-yl)-3-(1H-imidazol-1-yl)-5-methoxy-1-methyl-1H-pyrrolo[3,2-b]pyridine] — 4-fold lower, 0.186 µM
- COc1nc2c(-n3ccnc3)c(-c3nnc(/C(C)=N/OCCO)[nH]3)n(C)c2cc1Cl [Example 40, (E/Z)-1-(5-(6-chloro-3-(1H-imidazol-1-yl)-5-methoxy-1-methyl-1H-pyrrolo[3,2-b]pyridin-2-yl)-4H-1,2,4-triazol-3-yl)ethan-1-one O-(2-hydroxyethyl)oxime] — 7.3-fold lower, 0.101 µM
- COc1nc2c(-n3ccnc3)c(-c3nnc(C(F)(F)F)[nH]3)n(C)c2cc1Cl [Example 45] — 1.9-fold lower, 0.384 µM
- COCC(c1nnc(-c2c(-c3cn[nH]c3)c3nc(OC)c(Cl)cc3n2C)[nH]1)N(C)C (centres unmarked) [Example 37, 1-(5-(6-chloro-5-methoxy-1-methyl-3-(1H-pyrazol-4-yl)-1H-pyrrolo[3,2-b]pyridin-2-yl)-4H-1,2,4-triazol-3-yl)-2-methoxy-N,N-dimethylethan-1-amine] — 6-fold lower, 0.123 µM
- COc1nc2c(-c3cn[nH]c3)c(-c3nnc(C(C)=O)[nH]3)[nH]c2cc1Cl [Example 6, 1-(5-(6-chloro-5-methoxy-3-(1H-pyrazol-4-yl)-1H-pyrrolo[3,2-b]pyridin-2-yl)-4H-1,2,4-triazol-3-yl)ethan-1-one] — 11-fold lower, 0.066 µM
- COc1nc2c(-n3ccnc3)c(-c3nnc(F)[nH]3)n(C)c2cc1Cl [Example 33, 6-chloro-2-(5-fluoro-4H-1,2,4-triazol-3-yl)-3-(1H-imidazol-1-yl)-5-methoxy-1-methyl-1H-pyrrolo[3,2-b]pyridine] — 2.2-fold lower, 0.332 µM
